Experimental data as given in patent US8653032B2, “Pharmaceutical composition for preventing / treating TRPV1 activity-related and inflammation-related diseases or conditions containing maillard peptide separated from well-aged traditional soy sauce as active ingredient” (Korea Food Research Institute, priority 2009, dated 2014).

Test system: COX-2
Test: COX-2 promoter reporter gene (luciferase) assay, COX-2 induced with TPA, cells transfected with TRPV1 of human
Assay type: cell-based
Settings: Maillard peptides 0.1% and 0.2%
Method: In order to measure COX-2 activity inhibition effect of Maillard peptides of the present invention, the following experiment was performed.
[…] cells were cultivated in the growth medium (DMEM, 10% calf serum, 100 units/ml penicillin, 100 μg/ml streptomycin) at 37° C., atmosphere: air 95% (v/v), carbon dioxide, 5% to generate cells growing exponentially; the medium was removed, washed with PBS, and treated with trypsin to separate the cultivated cells; and the separated cells were placed in the medium containing serum to inactivate trypsin. Centrifugal filtration was performed at 200/g for 2 min to obtain cell pellets. […] The transformed plasmid cells were washed with PBS, and dissolution buffer (125 mM Tris pH 7.8, 10 mM CDTA, 10 mM DTT, 50% glycerol, 5% triton X-100) was added to destroy the cells and obtain supernatant liquid, and the amount (concentration) of protein was quantified with Bradford assay. Luciferase activity was measured by adding 100 μl of buffer(20 mM trysin, 1.07 mM (MgCO3)4Mg(OH)2H20, 2.67 mM MgSO4, 0.1 mM EDTA, 33.3 mM DTT, 270 μM coenzyme A(Lithium salt), 470 μM luciferin, 530 μM ATP) and measuring light emission with Luminometer (LUMAT LB 9501/16) for 20 min. […]

## C=C(C)[C@]12C[C@@H](C)[C@@]34O[C@](Cc5ccccc5)(O[C@@H]1[C@@H]3C=C(COC(=O)Cc1ccc(O)c(OC)c1)C[C@]1(O)C(=O)C(C)=C[C@@H]41)O2 [resiniferatoxin]
  COX-2 activity induced by TPA: decreased
